Experimental data from patent publication US12679843B2, “Pyrrolopyrimidine amines as complement inhibitors” (BioCryst Pharmaceuticals, Inc., priority 2020, dated 2026).

Biological target: Factor D (Homo sapiens, UniProt P00746)
Experiment: Factor D esterolytic assay (Z-Lys-SBzl thioester substrate, DTNB, 405 nm)
Type: biochemical
Settings: substrate Z-Lys-SBzl 1.29 mM, 100 mM HEPES, 500 mM NaCl, pH 7.5, 10% DMSO, tested a minimum of three times
How it was run: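 Human Factor D hydrolysis of Z-Lys-SBzl (1.29 mM) monitored at 405 nm via DTNB thiol detection for 600 s, 690 nm background subtracted. Buffer 100 mM HEPES, 500 mM NaCl, pH 7.5, 10% DMSO; substrate added immediately or after room-temperature preincubation. IC50 from percent inhibition of rate, at least three tests.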

Factor D, sequence (P00746 26-253): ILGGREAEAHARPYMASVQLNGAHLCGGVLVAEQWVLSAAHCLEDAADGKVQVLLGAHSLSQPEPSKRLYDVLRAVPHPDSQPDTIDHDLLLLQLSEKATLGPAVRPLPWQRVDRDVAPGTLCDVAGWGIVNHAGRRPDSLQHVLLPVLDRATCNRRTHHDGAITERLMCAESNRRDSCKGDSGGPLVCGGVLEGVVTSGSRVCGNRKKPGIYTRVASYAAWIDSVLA

Row | SMILES | IC50
1 | COc1cc2c(cc1F)c1c(N)ncnc1n2CC(=O)N1[C@H](C(=O)Nc2cccc(Br)n2)C[C@@]2(C)C[C@@H]12 [Compound 388a, (1R,3S,5R)-2-(2-(4-amino-6-fluoro-7-methoxy-9H-pyrimido[4,5-b]indol-9-yl)acetyl)-N-(6-bromopyridin-2-yl)-5-methyl-2-azabicyclo[3.1.0]hexane-3-carboxamide] | < 0.1 µM
2 | Nc1ncnc2c1c1cc(Br)c(F)cc1n2CC(=O)N1[C@@H]2C[C@@H]2C[C@H]1C(=O)Nc1cccc(Br)n1 [Compound 389g, (1R,3S,5R)-2-(2-(4-amino-6-bromo-7-fluoro-9H-pyrimido[4,5-b]indol-9-yl)acetyl)-N-(6-bromopyridin-2-yl)-2-azabicyclo[3.1.0]hexane-3-carboxamide] | < 0.1 µM
3 | C[C@@]12C[C@@H](C(=O)Nc3cccc(Br)n3)N(C(=O)Cn3c4cc(F)c(Br)cc4c4c(N)ncnc43)[C@@H]1C2 [Compound 390a, (1R,3S,5R)-2-(2-(4-amino-6-bromo-7-fluoro-9H-pyrimido[4,5-b]indol-9-yl)acetyl)-N-(6-bromopyridin-2-yl)-5-methyl-2-azabicyclo[3.1.0]hexane-3-carboxamide] | < 0.1 µM
4 | Cc1cc(F)c2c(c1)c1c(N)ncnc1n2CC(=O)N1[C@@H]2C[C@@H]2C[C@H]1C(=O)Nc1cccc(Br)n1 [Compound 391g, (1R,3S,5R)-2-(2-(4-amino-8-fluoro-6-methyl-9H-pyrimido[4,5-b]indol-9-yl)acetyl)-N-(6-bromopyridin-2-yl)-2-azabicyclo[3.1.0]hexane-3-carboxamide] | < 0.1 µM
5 | Cc1cc(F)c2c(c1)c1c(N)ncnc1n2CC(=O)N1[C@H](C(=O)Nc2cccc(Br)n2)C[C@@]2(C)C[C@@H]12 [Compound 392a, (1R,3S,5R)-2-(2-(4-amino-8-fluoro-6-methyl-9H-pyrimido[4,5-b]indol-9-yl)acetyl)-N-(6-bromopyridin-2-yl)-5-methyl-2-azabicyclo[3.1.0]hexane-3-carboxamide] | < 0.1 µM
